Data from US8598221B2 (priority 2009, dated 2013).

Test system: cramps induced by acetic acid in the mouse
Assay: animal or person
Type: in vivo
Protocol: The analgesic effect of a nefopam-celecoxib combination was investigated in the model of abdominal cramps induced in the mouse by intraperitoneal administration of acetic acid. This model of pain induced by a chemical substance corresponds to inflammatory, visceral and acute pain.
Male CD1 mice (bred: C. River) weighing between 25 and 30 grams are used after an acclimatization for at least 7 days in the animal house (temp.=22±2; humidity=50±20%; food SAFE “A04”; nyctohemeral cycle: 12 h/12 h (light: 7 h/19 h−darkness: 19 h/7 h)). • 2. Protocol
On the day of the experiment, the non-fasting mice are weighed, marked and distributed at random in batches of 10. The acetic acid solution (Sigma) is prepared at 0.6%, or 60 mg of acetic acid in 10 ml of 0.9% NaCl.
At t=0, the mouse receives celecoxib by the oral route. At t=30 min, the mouse is administered nefopam or its liquid vehicle by the subcutaneous route. At t=60 min, the acetic acid is injected intraperitoneally (0.1 ml/10 g).
The number of abdominal cramps is counted from 5 to 20 minutes after injection of acetic acid. Frank abdominal cramps characterized by stretching of the hindpaws and/or hollowing of the flanks with twisting are regarded as positive. • 3. Products
Nefopam hydrochloride (Biocodex, batch 38) (called simply nefopam hereunder) is dissolved in distilled water or 0.9% NaCl. Celecoxib (Celebrex® capsules) is suspended in Tween 80 at 1%. • 4. Statistical Analysis
The test used is an analysis of variance for 3 or more groups and a Student t-test for 2 groups. Then the treated group or groups that differ from the control group are determined. […] At least 10 mice are used for each dose, and at least 3 doses are used for determining the dose-response curve. The dose that produces 50% of antinociceptive effect (50% decrease in number of cramps) is calculated by a standard linear regression analysis of the dose-response curve.
The interaction is evaluated by an isobolographic analysis of the co-administration of a combination of doses at fixed ratio according to Tallarida (2000) op. cit., Tallarida et al. (1989) Life Sci. 45:947-961 and Tallarida et al. (1997) Life Sci. 61:PL417-PL425. The isobologram is constructed by joining the ED50 of celecoxib with that of nefopam to obtain the line of additivity. The ED50 of the combination is determined by linear regression analysis of the dose-response curve, and it is compared by a t-test with a theoretical additive ED50 obtained using the PharmToolsPro software.

Q: Which ED50 (Mus musculus, read-out: ED50 (dose producing 50% decrease in number of cramps)) does the source give for `Cc1ccc(-c2cc(C(F)(F)F)nn2-c2ccc(S(N)(=O)=O)cc2)cc1` [Celecoxib, celecoxib] here?
A: Its ED50 is 40.2 ± 8.06 mg/kg.

Q: And the “% variation of number of cramps” value (celecoxib 10 mg/kg oral)?
A: The value was −9%.

Q: What about the “Number of cramps (mean ± SEM)” value (celecoxib 10 mg/kg oral) of the same compound?
A: Its value is 28.2 ± 2.9.

Q: What about the “% variation of number of cramps” value (celecoxib 20 mg/kg oral) of the same compound?
A: Its value is −42%.

Q: And the “Number of cramps (mean ± SEM)” value (celecoxib 20 mg/kg oral)?
A: The value was 18.1 ± 3.2.

Q: And the “% variation of number of cramps” value (celecoxib 50 mg/kg oral)?
A: The value was −39%.

Q: What about the “Number of cramps (mean ± SEM)” value (celecoxib 50 mg/kg oral) of the same compound?
A: Its value is 18.9 ± 2.2.

Q: And the “% variation of number of cramps” value (celecoxib 75 mg/kg oral)?
A: The value was −72%.

Q: What about the “Number of cramps (mean ± SEM)” value (celecoxib 75 mg/kg oral) of the same compound?
A: The value was 8.6 ± 2.1.

Q: And the “% variation of number of cramps” value (celecoxib 150 mg/kg oral)?
A: The value was −90%.

Q: And the “Number of cramps (mean ± SEM)” value (celecoxib 150 mg/kg oral)?
A: The value was 3.2 ± 1.0.
